Assay results taken from US9062041B2 (Bayer Intellectual Property GmbH, priority 2011, dated 2015).

How the values were obtained:
Format in all cases: cell-based
[1] = molecular target: EP4 subtype of the human PGE2 receptor (Homo sapiens, UniProt P35408); assay: cAMP antagonism test on the human EP4 receptor (HTRF cAMP detection); settings: selectivity towards hEP4, IC50 measured by cAMP antagonism test
Summary of the method: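 Competitive HTRF cAMP read-out (cAMP-d2 vs Eu-cryptate anti-cAMP antibody, 665/620 nm ratio) on lysed human EP4 cells. Compound (0.8 nM–16.5 μM) applied 20 min at RT before 60 min PGE2 challenge (3× solution 0.3 nM, IBMX present); 20 min lysis precedes reading.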

human PGD receptor = molecular target: T1, human PGD receptor (Homo sapiens, UniProt Q13258); assay: cAMP antagonism test on the human prostaglandin D receptor (HTRF cAMP detection); settings: selectivity towards hDP, IC50 measured by cAMP antagonism test
T1 sequence (Q13258 1-359): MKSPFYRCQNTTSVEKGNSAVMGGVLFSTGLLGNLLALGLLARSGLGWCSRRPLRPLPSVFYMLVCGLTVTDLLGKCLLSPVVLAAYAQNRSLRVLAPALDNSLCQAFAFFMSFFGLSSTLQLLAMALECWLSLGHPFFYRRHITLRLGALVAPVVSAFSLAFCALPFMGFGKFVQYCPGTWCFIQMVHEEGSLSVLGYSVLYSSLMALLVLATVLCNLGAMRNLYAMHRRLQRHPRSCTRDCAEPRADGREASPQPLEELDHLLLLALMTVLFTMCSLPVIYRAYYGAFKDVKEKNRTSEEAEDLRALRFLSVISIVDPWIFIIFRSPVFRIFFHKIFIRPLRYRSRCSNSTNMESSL
Summary of the method: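 HTRF competition read-out (665/620 nm ratio ×10000), where higher FRET means less cAMP, i.e. antagonism. Compounds (0.8 nM–16.5 μM) were preincubated 20 min at RT with cells and cAMP-d2, PGD2 (3× solution, 6 nM) in IBMX-containing PBS added for 30 min at RT, then cells lysed 20 min.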

[2] = molecular target: EP2 subtype of the human PGE2 receptor (Homo sapiens, UniProt P43116); assay: cAMP antagonism test on the human EP2 receptor (HTRF cAMP detection); settings: hEP2 receptor, read-out: Antagonism hEP2 IC50
Summary of the method: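 Read-out is a competitive HTRF for cAMP: lysate cAMP displaces cAMP-d2 from Eu cryptate-labelled antibody, and antagonism raises the 665/620 nm ratio. Compound (0.8 nM–16.5 μM) added to EP2 cells 20 min at RT before 60 min PGE2 challenge (3× stock 1.5 nM) with IBMX, followed by 20 min lysis.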

EP4 subtype of the human PGE2 receptor, sequence (P35408 whole entry): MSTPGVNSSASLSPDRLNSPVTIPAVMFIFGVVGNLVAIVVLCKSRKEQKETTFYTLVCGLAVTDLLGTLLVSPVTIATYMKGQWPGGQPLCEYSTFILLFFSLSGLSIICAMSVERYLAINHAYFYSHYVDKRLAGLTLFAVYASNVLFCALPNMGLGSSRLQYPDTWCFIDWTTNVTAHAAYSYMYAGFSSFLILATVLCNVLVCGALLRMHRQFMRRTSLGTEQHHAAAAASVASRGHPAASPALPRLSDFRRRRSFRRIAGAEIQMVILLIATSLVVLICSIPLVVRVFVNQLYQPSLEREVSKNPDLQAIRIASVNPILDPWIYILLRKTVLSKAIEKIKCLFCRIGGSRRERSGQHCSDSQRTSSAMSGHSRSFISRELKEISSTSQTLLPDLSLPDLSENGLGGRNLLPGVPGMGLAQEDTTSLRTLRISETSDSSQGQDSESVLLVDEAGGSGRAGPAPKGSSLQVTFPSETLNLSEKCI
EP2 subtype of the human PGE2 receptor, sequence (P43116 whole entry): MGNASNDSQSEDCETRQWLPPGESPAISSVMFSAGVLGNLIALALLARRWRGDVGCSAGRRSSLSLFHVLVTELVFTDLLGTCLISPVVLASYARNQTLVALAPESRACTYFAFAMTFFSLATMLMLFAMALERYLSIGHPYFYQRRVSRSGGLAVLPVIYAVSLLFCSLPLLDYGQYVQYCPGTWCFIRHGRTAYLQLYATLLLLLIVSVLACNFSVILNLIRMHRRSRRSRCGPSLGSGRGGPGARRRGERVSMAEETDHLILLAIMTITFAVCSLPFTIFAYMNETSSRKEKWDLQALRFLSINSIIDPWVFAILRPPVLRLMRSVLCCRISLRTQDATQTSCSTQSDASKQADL

SMILES | Selectivity hEP2/hEP4 [1] | Selectivity hEP2/hDP (human PGD receptor) | IC50 [2] [nM]
Cc1c(C(=O)NCCSC(F)(F)F)ccc2nn(CC3CN(C(=O)c4ccc(C(F)(F)F)cc4F)C3)cc12 [Example 134, 2-({1-[2-fluoro-4-(trifluoromethyl)benzoyl]azetidin-3-yl}methyl)-4-methyl-N-{2-[(trifluoromethyl)sulphanyl]ethyl}-2H-indazol-5-carboxamide] | xxx (xxx > 100) | xxx (xxx > 100) | 56.5
Cc1c(C(=O)NCCSC(F)(F)F)ccc2nn(CC3CN(C(=O)c4ccc(S(F)(F)(F)(F)F)cc4)C3)cc12 [Example 135, 4-methyl-2-({1-[4-(pentafluoro-λ^6-sulphanyl)benzoyl]azetidin-3-yl}methyl)-N-{2-[(trifluoromethyl)sulphanyl]ethyl}-2H-indazol-5-carboxamide] | xxx (xxx > 100) | xxx (xxx > 100) | 19.5
Cc1c(C(=O)NCCOC2CC2)ccc2nn(CC3CN(C(=O)c4ccc(OC(F)(F)F)cc4)C3)cc12 [Example 136, N-[2-(cyclopropyloxy)ethyl]-4-methyl-2-({1-[4-(trifluoromethoxy)benzoyl]azetidin-3-yl}methyl)-2H-indazol-5-carboxamide] | xxx (xxx > 100) | xxx (xxx > 100) | 6.59
Cc1c(C(=O)NCCOC2CCC2)ccc2nn(CC3CN(C(=O)c4ccc(OC(F)(F)F)cc4)C3)cc12 [Example 137, N-[2-(cyclobutyloxy)ethyl]-4-methyl-2-({1-[4-(trifluoromethoxy)benzoyl]azetidin-3-yl}methyl)-2H-indazol-5-carboxamide] | xxx (xxx > 100) | xxx (xxx > 100) | 7.65
Cc1c(C(=O)NCCOCC2CC2)ccc2nn(CC3CN(C(=O)c4ccc(Cl)cc4)C3)cc12 [Example 149, 2-{[1-(4-chlorobenzoyl)azetidin-3-yl]methyl}-N-[2-(cyclopropylmethoxy)ethyl]-4-methyl-2H-indazol-5-carboxamide] | xxx (xxx > 100) | xxx (xxx > 100) | 29.6
Cc1c(C(=O)NCCOCC2CC2)ccc2nn(CC3CN(C(=O)c4ccc(Oc5ccc(F)cc5)cc4)C3)cc12 [Example 150, N-[2-(cyclopropylmethoxy)ethyl]-2-({1-[4-(4-fluorophenoxy)benzoyl]azetidin-3-yl}methyl)-4-methyl-2H-indazol-5-carboxamide] | xxx (xxx > 100) | xxx (xxx > 100) | 12.8
Cc1ccc(C(=O)N2CC(Cn3cc4c(C)c(C(=O)NCCOCC5CC5)ccc4n3)C2)cc1 [Example 151, N-[2-(cyclopropylmethoxy)ethyl]-4-methyl-2-{[1-(4-methylbenzoyl)azetidin-3-yl]methyl}-2H-indazol-5-carboxamide] | xxx (xxx > 100) | xxx (xxx > 100) | 48.5
Cc1c(C(=O)NCCOC(F)(F)F)ccc2nn(CC3CN(C(=O)c4ccc(Cl)cc4)C3)cc12 [Example 152, 2-{[1-(4-chlorobenzoyl)azetidin-3-yl]methyl}-4-methyl-N-[2-(trifluoromethoxy)ethyl]-2H-indazol-5-carboxamide] | xxx (xxx > 100) | xxx (xxx > 100) | 33.3
Cc1c(C(=O)NCCOC(C)(C)C)ccc2nn(CC3CN(C(=O)c4ccc(Cl)cc4)C3)cc12 [Example 153, N-(2-tert-butoxyethyl)-2-{[1-(4-chlorobenzoyl)azetidin-3-yl]methyl}-4-methyl-2H-indazol-5-carboxamide] | xxx (xxx > 100) | xxx (xxx > 100) | 60.8
Cc1c(C(=O)NCCOCC2CC2)ccc2nn(CC3CN(C(=O)c4ccc(-c5ccc(F)cc5)cc4)C3)cc12 [Example 157, N-[2-(cyclopropylmethoxy)ethyl]-2-({1-[(4′-fluorobiphenyl-4-yl)carbonyl]azetidin-3-yl}methyl)-4-methyl-2H-indazol-5-carboxamide] | xxx (xxx > 100) | xxx (xxx > 100) | 13.6
COCCNC(=O)c1ccc2nn(CC3CN(C(=O)c4ccc(-c5ccc(F)cc5)cc4)C3)cc2c1C [Example 158, 2-({1-[(4′-fluorobiphenyl-4-yl)carbonyl]azetidin-3-yl}methyl)-N-(2-methoxy-ethyl)-4-methyl-2H-indazol-5-carboxamide] | xxx (xxx > 100) | xxx (xxx > 100) | 6.21
COCCNC(=O)c1ccc2nn(CC3CN(C(=O)c4ccc(Oc5ccc(F)cc5)cc4)C3)cc2c1C [Example 159, 2-({1-[4-(4-fluorophenoxy)benzoyl]azetidin-3-yl}methyl)-N-(2-methoxyethyl)-4-methyl-2H-indazol-5-carboxamide] | xxx (xxx > 100) | xxx (xxx > 100) | 6.24
Cc1c(C(=O)NCC(F)(F)F)ccc2nn(CC3CN(C(=O)c4ccc(Oc5ccc(F)cc5)cc4)C3)cc12 [Example 160, 2-({1-[4-(4-fluorophenoxy)benzoyl]azetidin-3-yl}methyl)-4-methyl-N-(2,2,2-trifluoroethyl)-2H-indazol-5-carboxamide] | xxx (xxx > 100) | xxx (xxx > 100) | 82.9
Cc1c(C(=O)NCC(F)(F)F)ccc2nn(CC3CN(C(=O)c4ccc(-c5ccc(F)cc5)cc4)C3)cc12 [Example 161, 2-({1-[(4′-fluorobiphenyl-4-yl)carbonyl]azetidin-3-yl}methyl)-4-methyl-N-(2,2,2-trifluoroethyl)-2H-indazol-5-carboxamide] | xxx (xxx > 100) | xxx (xxx > 100) | 98.2
Cc1c(C(=O)NCCOCC(F)(F)F)ccc2nn(CC3CN(C(=O)c4ccc(Cl)cc4)C3)cc12 [Example 162, 2-{[1-(4-chlorobenzoyl)azetidin-3-yl]methyl}-4-methyl-N-[2-(2,2,2-trifluoro-ethoxy)ethyl]-2H-indazol-5-carboxamide] | xxx (xxx > 100) | xxx (xxx > 100) | 9.33
Cc1c(C(=O)NCCOCC(F)(F)F)ccc2nn(CC3CN(C(=O)c4ccc(Oc5ccc(C(F)(F)F)cc5)cc4)C3)cc12 [Example 163, 4-methyl-N-[2-(2,2,2-trifluoroethoxy)ethyl]-2-[(1-{4-[4-(trifluoromethyl)phenoxy]benzoyl}azetidin-3-yl)methyl]-2H-indazol-5-carboxamide] | xxx (xxx > 100) | xxx (xxx > 100) | 6.8
Cc1c(C(=O)NCC(F)(F)F)ccc2nn(CC3CN(C(=O)c4ccc(Oc5ccc(C(F)(F)F)cc5)cc4)C3)cc12 [Example 164, 4-methyl-N-(2,2,2-trifluoroethyl)-2-[(1-{4-[4-(trifluoromethyl)phenoxy]benzoyl}azetidin-3-yl)methyl]-2H-indazol-5-carboxamide] | xxx (xxx > 100) | xxx (xxx > 100) | 10.9
